Laboratory results published in ChEMBL document CHEMBL1201862, “PubChem BioAssay data set” (2004).
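Step 1: Grow cells in 96-well plates. Step 2: Expose to compound for 48 hours at 5 concentrations. Step 3: Interpolate endpoints linearly; if unreached, use highest concentration. GI50: concentration for 50% inhibition of growth.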 The source made the active and inactive calls. Rule as the data show it: active = GI50 up to about 1.1 µM and inactive = higher.

Experiments:
Assay in all cases: DTP human tumour cell line panel, 48 h
UO-31 = tested on: UO-31
IGROV-1 = tested on: IGROV-1
SK-MEL-5 = tested on: SK-MEL-5
SK-MEL-28 = tested on: SK-MEL-28
MOLT-4 = tested on: MOLT-4
HCC 2998 = tested on: HCC 2998
MDA-MB-435 = tested on: MDA-MB-435
K562 = tested on: K562
BT-549 = tested on: BT-549
ACHN = tested on: ACHN
MDA-MB-231 = tested on: MDA-MB-231
PC-3 = tested on: PC-3
Malme-3M = tested on: Malme-3M
COLO 205 = tested on: COLO 205
CAKI-1 = tested on: CAKI-1
RPMI-8226 = tested on: RPMI-8226
RXF 393 = tested on: RXF 393
KM12 = tested on: KM12
DU-145 = tested on: DU-145
OVCAR-5 = tested on: OVCAR-5
NCI-H460 = tested on: NCI-H460
M14 = tested on: M14
SK-MEL-2 = tested on: SK-MEL-2
HCT-116 = tested on: HCT-116
A498 = tested on: A498
UACC-62 = tested on: UACC-62
HCT-15 = tested on: HCT-15
TK-10 = tested on: TK-10
HOP-92 = tested on: HOP-92
SF-268 = tested on: SF-268
SW-620 = tested on: SW-620
OVCAR-4 = tested on: OVCAR-4
SN12C = tested on: SN12C
MCF7 = tested on: MCF7
EKVX = tested on: EKVX
NCI-H23 = tested on: NCI-H23
SK-OV-3 = tested on: SK-OV-3
SNB-19 = tested on: SNB-19
SF-295 = tested on: SF-295
NCI-H522 = tested on: NCI-H522
786-0 = tested on: 786-0
UACC-257 = tested on: UACC-257
NCI-H226 = tested on: NCI-H226
HT-29 = tested on: HT-29
SNB-75 = tested on: SNB-75
U-251 = tested on: U-251
A549 = tested on: A549
NCI/ADR-RES = tested on: NCI/ADR-RES
MDA-N = tested on: MDA-N
T47D = tested on: T47D
SR = tested on: SR
CCRF-CEM = tested on: CCRF-CEM
OVCAR-3 = tested on: OVCAR-3
SF-539 = tested on: SF-539
HL-60 = tested on: HL-60
LOX IMVI = tested on: LOX IMVI
HOP-62 = tested on: HOP-62
Hs-578T = tested on: Hs-578T
OVCAR-8 = tested on: OVCAR-8

Oc1ccc2ccccc2c1OCc1nnc(CCCCCCCCc2nnc(COc3c(O)ccc4ccccc34)o2)o1
GI50 (UO-31): > 100 µM (inactive)
GI50 (IGROV-1): > 100 µM (inactive)
GI50 (SK-MEL-5): > 100 µM (inactive)
GI50 (SK-MEL-28): > 100 µM (inactive)
GI50 (MOLT-4): 92.3 µM (inactive)
GI50 (HCC 2998): > 100 µM (inactive)
GI50 (MDA-MB-435): > 100 µM (inactive)
GI50 (K562): > 100 µM (inactive)
GI50 (BT-549): > 100 µM (inactive)
GI50 (ACHN): > 100 µM (inactive)
GI50 (MDA-MB-231): 34.8 µM (inactive)
GI50 (PC-3): > 100 µM (inactive)
GI50 (Malme-3M): > 100 µM (inactive)
GI50 (COLO 205): > 100 µM (inactive)
GI50 (CAKI-1): 67 µM (inactive)
GI50 (RPMI-8226): > 100 µM (inactive)
GI50 (RXF 393): > 100 µM (inactive)
GI50 (KM12): 25.2 µM (inactive)
GI50 (DU-145): > 100 µM (inactive)
GI50 (OVCAR-5): > 100 µM (inactive)
GI50 (NCI-H460): > 100 µM (inactive)
GI50 (M14): > 100 µM (inactive)
GI50 (SK-MEL-2): > 100 µM (inactive)
GI50 (HCT-116): 20.7 µM (inactive)
GI50 (A498): > 100 µM (inactive)
GI50 (UACC-62): > 100 µM (inactive)
GI50 (HCT-15): > 100 µM
GI50 (TK-10): > 100 µM (inactive)
GI50 (HOP-92): > 100 µM (inactive)
GI50 (SF-268): 99.3 µM (inactive)
GI50 (SW-620): > 100 µM (inactive)
GI50 (OVCAR-4): > 100 µM (inactive)
GI50 (SN12C): > 100 µM (inactive)
GI50 (MCF7): 59.2 µM (inactive)
GI50 (EKVX): > 100 µM (inactive)
GI50 (NCI-H23): > 100 µM (inactive)
GI50 (SK-OV-3): > 100 µM (inactive)
GI50 (SNB-19): > 100 µM (inactive)
GI50 (SF-295): > 100 µM (inactive)
GI50 (NCI-H522): > 100 µM (inactive)
GI50 (786-0): 83 µM (inactive)
GI50 (UACC-257): > 100 µM (inactive)
GI50 (NCI-H226): > 100 µM (inactive)
GI50 (HT-29): > 100 µM (inactive)
GI50 (SNB-75): > 100 µM (inactive)
GI50 (U-251): 35.7 µM (inactive)
GI50 (A549): > 100 µM (inactive)
GI50 (NCI/ADR-RES): > 100 µM (inactive)
GI50 (MDA-N): > 100 µM (inactive)

Cc1cccc(NC(=S)N/N=C2\C(=O)Nc3ccccc32)c1
GI50 (UO-31): 63.2 µM (inactive)
GI50 (IGROV-1): 49.3 µM (inactive)
GI50 (SK-MEL-5): 23.3 µM (inactive)
GI50 (SK-MEL-28): 16.1 µM (inactive)
GI50 (MOLT-4): 59 µM (inactive)
GI50 (HCC 2998): > 100 µM (inactive)
GI50 (MDA-MB-435): 80.4 µM (inactive)
GI50 (K562): 65.8 µM (inactive)
GI50 (T47D): > 100 µM (inactive)
GI50 (ACHN): 43.1 µM (inactive)
GI50 (MDA-MB-231): > 100 µM (inactive)
GI50 (PC-3): 68.4 µM (inactive)
GI50 (Malme-3M): 66.1 µM (inactive)
GI50 (COLO 205): 78.3 µM (inactive)
GI50 (CAKI-1): 38.2 µM (inactive)
GI50 (RPMI-8226): > 100 µM (inactive)
GI50 (RXF 393): 30.1 µM (inactive)
GI50 (KM12): 39 µM (inactive)
GI50 (DU-145): 14.1 µM (inactive)
GI50 (OVCAR-5): > 100 µM (inactive)
GI50 (NCI-H460): 48.3 µM (inactive)
GI50 (M14): 60.8 µM (inactive)
GI50 (SK-MEL-2): 70.6 µM (inactive)
GI50 (HCT-116): 44.9 µM (inactive)
GI50 (A498): 29.7 µM (inactive)
GI50 (UACC-62): > 100 µM (inactive)
GI50 (HCT-15): 73.8 µM
GI50 (HOP-92): > 100 µM (inactive)
GI50 (SR): 70.3 µM (inactive)
GI50 (CCRF-CEM): 55 µM (inactive)
GI50 (SF-268): 4.98 µM (inactive)
GI50 (SW-620): > 100 µM (inactive)
GI50 (OVCAR-3): 32.3 µM (inactive)
GI50 (OVCAR-4): 34.9 µM (inactive)
GI50 (SN12C): 91.4 µM (inactive)
GI50 (MCF7): > 100 µM (inactive)
GI50 (EKVX): 31.3 µM (inactive)
GI50 (NCI-H23): > 100 µM (inactive)
GI50 (SK-OV-3): > 100 µM (inactive)
GI50 (SNB-19): > 100 µM (inactive)
GI50 (SF-539): 48.3 µM (inactive)
GI50 (HL-60): 67.8 µM (inactive)
GI50 (LOX IMVI): 51.4 µM (inactive)
GI50 (HOP-62): 62.7 µM (inactive)
GI50 (SF-295): 56.9 µM (inactive)
GI50 (NCI-H522): > 100 µM (inactive)
GI50 (786-0): 59.4 µM (inactive)
GI50 (UACC-257): > 100 µM (inactive)
GI50 (NCI-H226): > 100 µM (inactive)
GI50 (HT-29): > 100 µM (inactive)
GI50 (Hs-578T): > 100 µM (inactive)
GI50 (SNB-75): 63.1 µM (inactive)
GI50 (U-251): 61.8 µM (inactive)
GI50 (A549): 59.4 µM (inactive)
GI50 (NCI/ADR-RES): 29.9 µM (inactive)
GI50 (MDA-N): > 100 µM (inactive)
GI50 (OVCAR-8): > 100 µM (inactive)

Oc1cccc2cccnc12
GI50 (IGROV-1): 4.27 µM (inactive)
GI50 (SK-MEL-5): 4.86 µM (inactive)
GI50 (BT-549): 61.1 µM (inactive)
GI50 (RPMI-8226): 0.918 µM (active)
GI50 (SR): 0.342 µM (active)
GI50 (HL-60): 0.294 µM (active)
